Laboratory results taken from US8883763B2 (Universite Joseph Fourier, priority 2010, dated 2014).

Assays:
[1] = trials discontinued; cited from earlier work
PP1 and PP2A = conditions: cited from earlier work
[2] = due to its structural instability; cited from earlier work
PP1α (PP1CA) = molecular target: T1, PP1α (PP1CA) (Oryctolagus cuniculus, UniProt P62139); assay: Protein phosphatase test (PP1 activity, DiFMUP fluorescent substrate); format: biochemical; conditions: PP1CA at 80 mU, fluorescent substrate (50 μM), molecules from 50 μM to 50 nM; read-out: PP1 Inhibition IC50
T1 construct: purchased New England Biolabs P0754
T1 sequence (P62139 whole entry): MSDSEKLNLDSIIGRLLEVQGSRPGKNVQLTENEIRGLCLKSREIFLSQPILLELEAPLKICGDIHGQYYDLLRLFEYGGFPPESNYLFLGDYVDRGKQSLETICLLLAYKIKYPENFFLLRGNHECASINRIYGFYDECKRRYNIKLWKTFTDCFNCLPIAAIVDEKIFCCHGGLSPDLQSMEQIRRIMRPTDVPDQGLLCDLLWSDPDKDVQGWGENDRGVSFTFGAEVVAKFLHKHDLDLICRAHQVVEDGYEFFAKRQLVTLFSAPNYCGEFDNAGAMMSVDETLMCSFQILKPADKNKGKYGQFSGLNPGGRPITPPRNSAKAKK
Summary of the method: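 PP1α (30 or 80 mU) in 100 mM Tris-HCl pH 7.5, 4 mM DTT, 0.2 mM EDTA, 0.5 mM MnCl2 was preincubated 15 min with compound (50 μM to 50 nM), then given 60 μM DiFMUP for 20 min at 37 °C. Phosphatase activity was read as fluorescence at 355-460 nm, three times in duplicate.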

bovine brain tubulin = assay: In vitro tubulin polymerization test (turbidimetry at 350 nm); format: biochemical; conditions: molecules at 50 μM, calculated at t=3000 s, DMSO control = 100%
Summary of the method: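 Bovine brain tubulin was assembled at 37 °C in BRB80 (80 mM K-PIPES pH 6.8, 1 mM MgCl2, 1 mM EGTA) with 1 mM GTP. The 50 μM tests used compounds at 50 μM, run in triplicate. Turbidity at 350 nm was read at t=3000 s and expressed relative to control taken as 100%.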

HeLa cells [3] = assay: Indirect immunofluorescence: effect on HeLa cells (mitotic arrest, microtubule depolymerization); format: cell-based, human; design: key to Effect on Hela at 25 μM / Effect on Hela at 100 μM / Effect on Hela at 50 and 100 μM / Effect on Hela at 50 μM: —: −: no activity on the cells at 25 μM (if there is an effect at high concentrations, this is specified in the table).; *: weak activity (MA and/or slight depolymerization of the MTs and/or slight inhibition of proliferation),; **: average activity (MA and/or moderate depolymerization of the MTs and/or moderate inhibition of proliferation),; ***: strong activity (MA and/or pronounced depolymerization of the MTs and/or pronounced inhibition of proliferation),; ****: very strong activity (MA and/or very pronounced depolymerization of the MTs and/or strong inhibition of proliferation); conditions: 25 μM, 24 hours; mitotic index and/or depolymerization of the MTs
Summary of the method: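 HeLa cells exposed 24 h to compound (100 μM to 50 nM; primary series 1–10 μM), DMSO controls. PFA/glutaraldehyde-fixed cells immunostained for α-tubulin, actin (phalloidin) and DNA (Hoechst); fluorescence microscopy scored phenotypes and mitotic index, with mitotic index and/or MT depolymerization evaluated at 25 μM.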

HMEC cells = assay: Proliferation of HMEC cells (GI50); format: cell-based; conditions: Homo sapiens, 120 h, 50 μM to 1 nM for 5 days
Summary of the method: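 Cells seeded at 1,000/well (10% confluence) and exposed 5 days (120 h) to compound from 1 nM up to 50–100 μM. Live cells counted by Hoechst 33342 staining under fluorescence microscopy; GI50 is concentration halving proliferation versus control, mean of two triplicate experiments.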

PP1C = assay: Affinity chromatography on immobilized compound and immunoblotting; format: binding, Xenopus laevis; conditions: Xenopus egg extracts; immunoblot anti-PP1C and anti-PP2A; PP2A only traces as in control
Description: Xenopus egg cytoplasmic extracts were prepared from unfertilized Xenopus laevis eggs according to the method described (Desai A et al., Methods Cell Biol. 1999; 61: pp 385-412).
The molecule 37 was immobilized on a sepharose resin activated by an N-hydroxysuccinimide (NHS) group (GE Healthcare #17-0906-01) as follows: 100 μg of the molecule 37 per ml of NHS Sepharose in PBS, pH 8.3, for 1 hour at ambient temperature. The sepharose coupled with molecule 37 was designated “compound 6” resin, whereas in parallel, another “control” resin was produced with incubation in 0.5 M Monoethanolamine (MEA), pH 8.3, under the same conditions, in order to neutralize the NHS functions. After several washings with PBS, pH 8.3, the NHS functions remaining free were blocked with 0.5 M MEA for 30 minutes. Once they had been thoroughly washed with PBS, the “control” and “compound 6” resins were incubated with 1 ml of Xenopus egg extracts diluted 1:1 in CSF-XB buffer containing protease inhibitors (#1 873 580 Roche®), for 1 hour under stirring at 4° C. After 2 washings with PBST, the proteins of the extract remaining attached were eluted with 100 μl of electrophoresis SDS charge buffer (Laemmli, U.K., Cleavage of structural proteins during the assembly of the head of bacteriophage T4. Nature 1970; 227, 680-685) enriched with 6M urea. […]

HeLa cells [4] = assay: Comparative tests with INH2BP: antiproliferative activity; format: cell-based, human; conditions: 50 μM
Description: The cells were seeded in 96-well plates (1,000 per well) and incubated with different concentrations of compound 6 (1 nM to 100 μM), for 5 days (120 hours). At the end of this incubation, Hoechst 33342 (1 μg/ml) was added to the culture medium and the live cells were counted under a fluorescence microscope (Zeiss Axiovert 200M). The data represents the average of two independent experiments during which 10 fields chosen at random were analyzed for each concentration of compound 6, themselves produced in triplicate.

IC50 (PP1α (PP1CA)) | melting point | Compound | Tubulin polymerization inhibition (bovine brain tubulin) | Effect on Hela at 25 μM (HeLa cells [3]) | GI50 (HMEC cells) | also measured
 |  | C[C@@]12C(=O)OC(=O)[C@]1(C)[C@H]1CC[C@@H]2O1 [cantharidin] |  |  |  | toxicity in clinical trials [1]: too-high nephrotoxicity
 |  | tautomycetin |  |  |  | selectivity for PP1 relative to PP2A (PP1 and PP2A): 40 times
 |  | Phosphatidic acid |  |  |  | selectivity for PP1 relative to PP2A (PP1 and PP2A): 100 times
 |  | C[C@@](O)(/C=C/[C@H]1CC=CC(=O)O1)[C@@H](C[C@@H](O)\C=C/C=C\C=C\CO)OP(=O)(O)O [fostriecin] |  |  |  | selectivity for PP2A (PP1 and PP2A; PP2A relative to PP1): 40,000 times; activity in phase I clinical trial [2]: inactive
 |  | CO[C@H]([C@H](O)CC(=O)[C@@H](C)[C@@H](O)CC[C@@H](C)[C@@H]1O[C@]2(CC[C@@H](C)[C@H](CC[C@H](C)C(C)=O)O2)CC[C@@H]1C)[C@H](OC(=O)C[C@@H](O)C1=C(C)C(=O)OC1=O)C(C)C [tautomycin] |  |  |  | selectivity for PP1 relative to PP2A (PP1 and PP2A): 4 times
10 to 24 µM | > 260 °C | COc1ccc2cc(-c3ccc(OCc4ccccc4)cc3)[nH]c(=O)c2c1 [Compound 44, 3-(4-(Benzyloxy)phenyl)-7-methoxyisoquinolin-1(2H)-one] | — ((−) signifies that the molecule induces little or no tubulin assembly inhibition in vitro: 0+ or − −5% of the DMSO control.) | — | 25 to 50 µM | 
≥ 50 µM | 194 to 196 °C | COc1ccc(-c2c([N+](=O)[O-])c3ccc(OC)cc3c(=O)n2CC#N)cc1 [Compound 30, 2-(7-Methoxy-3-(4-methoxyphenyl)-4-nitro-1-oxoisoquinolin-2(1H)-yl)ethanenitrile] | + ((+) signifies that the molecule induces tubulin assembly inhibition in vitro comprised between 6 and 25% of the DMSO control.) | — | > 50 µM | 
> 50 µM | 255 °C | COc1ccc2cc(-c3ccc(O)cc3)[nH]c(=O)c2c1 [Compound 45, 3-(4-Hydroxyphenyl)-7-methoxyisoquinolin-1(2H)-one] | ++ ((++) signifies that the molecule induces tubulin assembly inhibition in vitro comprised between 26 and 50% of the DMSO control.) | **** | 0.1 to 1 µM | 
≤ 9 µM | 199 to 201 °C | COc1ccc(-c2nc(NCc3ccccc3)c3cc(OC)ccc3c2[N+](=O)[O-])cc1 [Compound 22, N-Benzyl-N-[7-methoxy-3-(4-methoxyphenyl)-4-nitroisoquinoline-1-yl]-amine] | + ((+) signifies that the molecule induces tubulin assembly inhibition in vitro comprised between 6 and 25% of the DMSO control.) | — | > 50 µM | 
> 50 µM |  | COc1ccc2c([N+](=O)[O-])c(-c3ccc(OCCOCCOCCOCCN)cc3)[nH]c(=O)c2c1 [Compound 37, 3-(4-(2-(2-(2-(2-Aminoethoxy)ethoxy)ethoxy)ethoxy)phenyl)-7-methoxy-4-nitroisoquinolin-1(2H)-one] | — ((−) signifies that the molecule induces little or no tubulin assembly inhibition in vitro: 0+ or − −5% of the DMSO control.) | — | 25 to 50 µM | retention of PP1C by compound immobilized on sepharose resin (PP1C): specifically retains PP1C
 |  | Nc1ccc2oc(=O)ccc2c1I [INH2BP, 5-iodo-6-amino-1,2-benzopyrone] |  |  |  | antiproliferative activity on HeLa cells (HeLa cells [4]): no antiproliferative activity
> 50 µM | 139 °C | COc1ccc(-c2[nH]c(=O)c3cc(OC)ccc3c2N2CCOCC2)cc1 [Compound 49, 7-Methoxy-3-(4-methoxyphenyl)-4-morpholinoisoquinolin-1(2H)-one] | + ((+) signifies that the molecule induces tubulin assembly inhibition in vitro comprised between 6 and 25% of the DMSO control.) | ** | 0.1 to 1 µM | 
> 50 µM | 240 to 242 °C | COc1ccc(-c2[nH]c(=O)c3cc(OC)ccc3c2Br)cc1 [Compound 15, 4-Bromo-7-methoxy-3-(4-methoxyphenyl)isoquinoline-1(2H)-one] | ++ ((++) signifies that the molecule induces tubulin assembly inhibition in vitro comprised between 26 and 50% of the DMSO control.) | *** | 0.1 to 1 µM | 

Compound | IC50 (PP1α (PP1CA)) | melting point | Tubulin polymerization inhibition (bovine brain tubulin) | Effect on Hela at 25 μM (HeLa cells [3]) | GI50 (HMEC cells) | also measured
COc1ccc2cc(-c3ccc(C#C[Si](C)(C)C)cc3)[nH]c(=O)c2c1 [Compound 33, 7-Methoxy-3-(4-((trimethylsilyl)ethynyl)phenyl)isoquinolin-1(2H)-one] | > 50 µM | 133 to 135 °C | — ((−) signifies that the molecule induces little or no tubulin assembly inhibition in vitro: 0+ or − −5% of the DMSO control.) | — | 25 to 50 µM | 
